In patent US20080261201A1, “Methods and compounds to alter virus infection” (priority 2006, published 2008):

Test system: Rac1
Experiment: HA-Rac1 incorporation into vesicular fractions of MCF-7 cells, Western blot
Assay type: cell-based
Details: IL-1β 1 ng/mL for 20 minutes
Method: Buoyant density centrifugation was used for subcellular fractionation and isolation of endosomes containing Nox2 activity. Cells were washed twice with ice-cold PBS and scrapped into a 1.5 mL microfuge tube using the same buffer. The cells were pelleted and resuspended in homogenization buffer (HMB) containing 0.25 M sucrose, 20 mM HEPES pH 7.4, 1 mM EDTA, and an EDTA-free protease inhibitor cocktail. The cells were homogenized using nitrogen cavitation in a cell disruption high-pressure chamber (Parr instruments, Moline, Ill.). The pressure was raised to 650-psi for 5 minutes and released suddenly. The homogenate was centrifuged at 3000×g for 15 minutes to pellet unbroken cells, nuclei, and heavy mitochondria. The heavy mitochondrial supernatant (HMS) was bottom loaded into an iodixanol discontinuous gradient in a 12.5 mL SW41Ti ultracentrifuge tube using a previously described method with modifications (Graham et al., 1994; Xia et al., 1998).
The discontinuous gradient was composed of 1.25 mL HMB without EDTA followed by bottom loading of the following % iodixanol steps sequentially with 1.0 mL 2.5%, 1.0 mL 5%, 1.5 mL 9%, 1.5 mL 14%, 2.5 mL 19%, 1.5 mL 26%, and finally the HMS in 2 mL 32%. Iodixanol concentrations were prepared fresh using a 50% iodixanol working solution (WS) diluted with HMB without EDTA. […]

How did the “HA-Rac1 incorporation into crude vesicular fractions” value turn out when “IL-1β: interleukin used to stimulate MCF-7 cells” was run?
The value was “significantly enhanced”.
